Measured values taken from paper PMC3033200 (Angewandte Chemie (International ed. in English), 2010).
“Also recorded” adds a separate entry of the source. Values belong to the substance of their own block, whether it stands above or below them.

Experiments:
ΔF508-CFTR [1] = format: cell-based, human; details: surface biotinylation and Western blotting; p = 0.35, n = 14
ΔF508-CFTR [2] = assay: Ussing chamber chloride efflux, residual ΔISC after CHX; format: cell-based, human
CFBE-ΔF cells = assay: peptide uptake by fluorescence microscopy; details: BioPORTER delivery, fluorescence microscopy (Figure S1)
ΔF508-CFTR [3] = assay: Ussing chamber chloride efflux; format: cell-based, human
CAL PDZ domain (CALP) = assay: NMR HSQC binding-site mapping on 15N-CALP; details: 15N-CALP HSQC

Substance: F*-ANSRWPTSII [F*-iCAL36]
increase in apical ΔF508-CFTR (significance, words) (ΔF508-CFTR [1]): not statistically significant
residual ΔISC increase vs control monolayers (ΔF508-CFTR [2]; CHX 2 h, relative to control (F*-SCR) monolayers, p = 0.0005): 25%
peptide uptake (CFBE-ΔF cells): confirmed

Substance: AALKEETEEEVQDTRL [CFTR16]
increase in ΔISC (ΔF508-CFTR [3]; absence of CHX, relative to the scrambled control (Figure 5)): did not significantly increase

mode of binding / binding site on CALP (CAL PDZ domain (CALP); 800 μM iCAL36, normalized chemical shift perturbation Δ ≥ 0.15): competitive inhibitor
Substance: ANSRWPTSII [iCAL36]
effect on ΔF508-CFTR biogenesis/maturation (ΔF508-CFTR [3]; comparison of ΔISC increase in absence (26%) and presence (25%) of CHX): does not strongly affect biogenesis
additional contacts compared to CFTR8 (CAL PDZ domain (CALP); compared to the CFTR8 octamer, listed as iCAL36_10): extends beyond that of CFTR8; also recorded: makes additional contacts at the distal end of the peptide-binding groove

peptide uptake (CFBE-ΔF cells): confirmed
Substance: F*-SPTINSAIWR [F*-SCR, reference compound]
residual ΔISC, % of baseline (ΔF508-CFTR [2]; 2 h CHX exposure, % of 0 h starting value, n = 9): 60%
shift in chloride efflux (ΔISC) compared to untreated cells (ΔF508-CFTR [3]; CFBE-ΔF polarized monolayers, 37 °C, peptide/BioPORTER (500 μM), compared to untreated cells): ≤ 4%
